Assay results as given in article PMC3072459 (Journal of medicinal chemistry, 2011).

Columns and labels:
[1] = target: nNOS in 293T cells overexpressing nNOS (293T/nNOS cells) (Rattus norvegicus, UniProt P29476); assay: Cell-based nNOS inhibition assay; settings: for activity in the cell-based assay (in words): A23187 (5 μM), 8 h
rat nNOS = rat nNOS (Rattus norvegicus, UniProt P29476); assay: NOS inhibition, hemoglobin; type: biochemical
[2] = rodent in vivo studies; cited from earlier work

## Cc1cc(N)nc(CCc2cccc(CCc3cc(C)cc(N)n3)c2)c1 [3g, 6,6'-(2,2'-(1,3-Phenylene)bis(ethane-2,1-diyl))bis(4-methylpyridin-2-amine)]
[1]
  activity in the cell-based assay (in words): almost no activity

## Cc1cc(C)nc(NCc2ccc3cc(CNc4cc(C)cc(C)n4)ccc3c2)c1 [3a, N,N'-(Naphthalene-2,6-diylbis(methylene))bis(4,6-dimethylpyridin-2-amine)]
Rat nNOS
  binding / inhibition of nNOS (in words): poor binding

## Cc1cc(N)nc(CCc2ccc3ccc(CCc4cc(C)nc(N)c4)cc3c2)c1 [3d, 4-(2-(7-(2-(6-Amino-4-methylpyridin-2-yl)ethyl)naphthalen-2-yl)ethyl)-6-methylpyridin-2-amine]
Rat nNOS
  binding / inhibition of nNOS (in words): poor inhibitor

## Cc1cc(N)nc(CCc2cccc(CCc3cc(C)nc(N)c3)c2)c1 [3h, 4-(3-(2-(6-Amino-4-methylpyridin-2-yl)ethyl)phenethyl)-6-methylpyridin-2-amine]
[1]
  activity in the cell-based assay (in words): almost no activity

## Cc1cc(N)nc(C[C@@H]2CNC[C@@H]2NCCNCCc2cccc(F)c2)c1 [compound 2]
[2]
  ability to penetrate the blood brain barrier (BBB): poor ability to penetrate the blood brain barrier

## Cc1cc(N)nc(CCc2ccc3cc(CCc4cc(C)cc(N)n4)ccc3c2)c1 [3b, 6,6'-(2,2'-(Naphthalene-2,6-diyl)bis(ethane-2,1-diyl))bis(4-methylpyridin-2-amine)]
Rat nNOS
  binding / inhibition of nNOS (in words): sub-micromolar binding affinity

## Cc1cc(N)nc(C[C@H]2CNC[C@H]2NCCNCCc2cccc(F)c2)c1 [compound 1]
[2]
  ability to penetrate the blood brain barrier (BBB): poor ability to penetrate the blood brain barrier

## Cc1cc(N)nc(CCc2cncc(CCc3cc(C)nc(N)c3)c2)c1 [3k, 4-(2-(5-(2-(6-Amino-4-methylpyridin-2-yl)ethyl)pyridin-3-yl)ethyl)-6-methylpyridin-2-amine]
[1]
  membrane penetration ability (in words, from cell-based assay): good membrane penetration ability

## Cc1cc(N)nc(CCc2cncc(CCc3cc(C)cc(N)n3)c2)c1 [3j, 6,6'-(2,2'-(Pyridine-3,5-diyl)bis(ethane-2,1-diyl))bis(4-methylpyridin-2-amine)]
[1]
  membrane penetration ability (in words, from cell-based assay): good membrane penetration ability

## Cc1cc(CCc2cccc(CCc3cc(C)nc(N)c3)c2)cc(N)n1 [3i, 4,4'-(2,2'-(1,3-Phenylene)bis(ethane-2,1-diyl))bis(6-methylpyridin-2-amine)]
Rat nNOS
  binding / inhibition of nNOS (in words): binds rather poorly

## Cc1cc(N)nc(CCc2ccc3ccc(CCc4cc(C)cc(N)n4)cc3c2)c1 [3c, 6,6'-(2,2'-(Naphthalene-2,7-diyl)bis(ethane-2,1-diyl))bis(4-methylpyridin-2-amine)]
Rat nNOS
  binding / inhibition of nNOS (in words): sub-micromolar binding affinity
